According to US4051315A, “6"-Deoxykanamycin B and 6"-deoxytobramycin” (priority 1975, dated 1977):
Where two headings read alike, the source gives them in different places.

Experiments:
Assay type in all cases: cell-based
[1] = test system: E. coli JR66/W677 NPT-2, GAS; assay: two-fold agar dilution MIC, Ec-53
E. coli NR79/W677 KAT = assay: two-fold agar dilution MIC, Ec-9; settings: Escherichia coli, NR79/W677KAT
S. marcescens A20019 = assay: two-fold agar dilution MIC, Sm-1
[2] = test system: P. aeruginosa A20896 GAT-3; assay: two-fold agar dilution MIC, Pa-24
E. coli P01495 CP.TC-R = assay: two-fold agar dilution MIC, Ec-2; settings: Escherichia coli, P01495CP.TCR
E. coli A20107 NPT-2 = assay: two-fold agar dilution MIC, Ec-49; settings: Escherichia coli
E. cloacae A21006 NPT-2 = assay: two-fold agar dilution MIC, E1-12
[3] = test system: S. aureus D137 PC, TC, EM-R; assay: two-fold agar dilution MIC, Sa-9
[4] = test system: S. marcescens A21247 NPT-1, GAS; assay: two-fold agar dilution MIC, Sm-16; settings: Serratia marcescens
E. coli A20732 GAS = assay: two-fold agar dilution MIC, Ec-72; settings: Escherichia coli, A20732GAS
P. aeruginosa GN-4925 = assay: two-fold agar dilution MIC, Pa-45; settings: Pseudomonas aeruginosa
B. subtilis PCT-219 = assay: two-fold agar dilution MIC, Bs-1; settings: Bacillus subtilis
E. coli NIHJ = assay: two-fold agar dilution MIC, Ec-1
E. coli R5 KAT = assay: two-fold agar dilution MIC, Ec-55
[5] = test system: a variety of gram-positive and gram-negative bacteria; assay: antibacterial activity by two-fold agar dilution method, overall statement
P. mirabilis A9554 CL-R = assay: two-fold agar dilution MIC, Pm-1
[6] = test system: P. aeruginosa A20601 GAT-1; assay: two-fold agar dilution MIC, Pa-21; settings: Pseudomonas aeruginosa
[7] = test system: K. pneumoniae 22-3038 NPT-2, GAS; assay: two-fold agar dilution MIC, Kp-8
[8] = test system: Pseudomonas sp. A20621 KAT, NPT-1,2; assay: two-fold agar dilution MIC, Px-10
S. aureus Smith = assay: two-fold agar dilution MIC, Sa-2; settings: Staphylococcus aureus
P. stuartii A20894 GAT-2 = assay: two-fold agar dilution MIC, Ps-2; settings: Ps-2
S. aureus D133 SH, Sth-R = assay: two-fold agar dilution MIC, Sa-4
P. vulgaris A9436 = assay: two-fold agar dilution MIC, Pv-1
K. pneumoniae D11 = assay: two-fold agar dilution MIC, Kp-1; settings: Klebsiella pneumoniae
E. coli JR35/C600 NPT-1 = assay: two-fold agar dilution MIC, Ec-10
E. coli JR88 CAT-1 = assay: two-fold agar dilution MIC, Ec-62
P. aeruginosa GN-315 KAT = assay: two-fold agar dilution MIC, Pa-27
P. aeruginosa A9930 = assay: two-fold agar dilution MIC, Pa-3; settings: Pseudomonas aeruginosa
[9] = test system: P. aeruginosa #130 GAT-1, NPT; assay: two-fold agar dilution MIC, Pa-16
E. cloacae A20364 NPT-1 = assay: two-fold agar dilution MIC, E1-2; settings: Enterobacter cloacae
[10] = test system: P. aeruginosa A20653 NPT-1,2; assay: two-fold agar dilution MIC, Pa-12; settings: Pseudomonas aeruginosa
S. aureus A20239 NPT-1,2 = assay: two-fold agar dilution MIC, Sa-10
E. coli ML1630 NPT-1 = assay: two-fold agar dilution MIC, Ec-5; settings: Escherichia coli
[11] = Staphylococcus aureus, Run 1, read-out: MIC

CC1OC(OC2C(N)CC(N)C(OC3OC(CN)C(O)CC3N)C2O)C(O)C(N)C1O (centres unmarked) [compound 6, 6"-Deoxytobramycin]
100 µg/mL: MIC ([4]; Run 1) | MIC (P. aeruginosa GN-4925; GN4925, Run 1) | MIC (P. aeruginosa GN-4925; GN4925, Run 2)
0.4 µg/mL: MIC (E. coli R5 KAT; Escherichia coli, R5KAT) | MIC (E. coli R5 KAT; Run 2, Ec-55) | MIC (K. pneumoniae D11; D11, Run 2) | MIC (P. aeruginosa A9930; A9930, Run 1) | MIC (P. aeruginosa A9930; A9930, Run 2)
6.3 µg/mL: MIC (S. marcescens A20019; Run 2) | MIC (S. marcescens A20019; Serratia marcescens, A20019, Run 1, read-out: MIC) | MIC ([9]; Pseudomonas aeruginosa, Run 1, read-out: MIC) | MIC ([9]; Run 2) | MIC ([10]; Run 1)
3.1 µg/mL: MIC ([3]; Run 2) | MIC [3, 11] | MIC ([6]; A20601GAT1, Run 1) | MIC ([6]; A20601GAT1, Run 2) | MIC (E. coli JR88 CAT-1; Escherichia coli, JR88CAT1) | MIC (E. coli JR88 CAT-1; Run 2, Ec-62) | MIC ([10]; Run 2)
25 µg/mL: MIC ([1]; Escherichia coli) | MIC ([1]; Run 2, Ec-53) | MIC (E. coli A20732 GAS; Run 2) | MIC ([7]; Klebsiella pneumoniae, Run 1, read-out: MIC) | MIC ([7]; Run 2) | MIC (P. stuartii A20894 GAT-2; Providencia stuartii, A20894GAT2, Run 1, read-out: MIC) | MIC (P. stuartii A20894 GAT-2; Run 2)
0.8 µg/mL: MIC (E. coli NR79/W677 KAT; Run 2) | MIC (E. coli P01495 CP.TC-R; Run 1) | MIC (E. coli P01495 CP.TC-R; Run 2) | MIC (E. coli A20107 NPT-2; A20107NPT2, Run 2) | MIC (E. coli NIHJ; Escherichia coli, Run 1, read-out: MIC) | MIC (E. coli NIHJ; Run 2) | MIC (P. mirabilis A9554 CL-R; Proteus mirabilis, A9554CLR, Run 1, read-out: MIC) | MIC (P. mirabilis A9554 CL-R; Run 2) | MIC (E. coli JR35/C600 NPT-1; Escherichia coli, JR35/C600NPT1) | MIC (E. coli JR35/C600 NPT-1; Run 2, Ec-10) | MIC (S. aureus A20239 NPT-1,2; Run 2, Sa-10) | MIC (S. aureus A20239 NPT-1,2; Staphylococcus aureus) | MIC (E. coli ML1630 NPT-1; ML1630NPT1, Run 2)
> 100 µg/mL: MIC ([2]; Pseudomonas aeruginosa, A20896GAT3, Run 1, read-out: MIC) | MIC ([2]; Run 2) | MIC (P. aeruginosa GN-315 KAT; Pseudomonas aeruginosa, GN315, Run 2, read-out: MIC) | MIC (P. aeruginosa GN-315 KAT; Run 1)
0.1 µg/mL: MIC (S. aureus Smith; Run 2)
1.6 µg/mL: MIC (E. coli NR79/W677 KAT; Run 1) | MIC (E. coli A20107 NPT-2; A20107NPT2, Run 1) | MIC (E. cloacae A21006 NPT-2; Enterobacter cloacae, A21006NPT2) | MIC (E. cloacae A21006 NPT-2; Run 2, E1-12) | MIC (S. aureus D133 SH, Sth-R; Run 2) | MIC (S. aureus D133 SH, Sth-R; [11]) | MIC (E. cloacae A20364 NPT-1; A20364NPT1, Run 1) | MIC (E. cloacae A20364 NPT-1; A20364NPT1, Run 2) | MIC (E. coli ML1630 NPT-1; ML1630NPT1, Run 1)
excellent antibacterial activity: antibacterial activity [5]
< 0.05 µg/mL: MIC (B. subtilis PCT-219; PCT219, Run 1) | MIC (B. subtilis PCT-219; PCT219, Run 2)
50 µg/mL: MIC ([4]; Run 2) | MIC (E. coli A20732 GAS; Run 1) | MIC ([8]; Pseudomonas, Run 1, read-out: MIC) | MIC ([8]; Run 2)
0.2 µg/mL: MIC (S. aureus Smith; Run 1) | MIC (P. vulgaris A9436; Proteus vulgaris, A9436, Run 1, read-out: MIC) | MIC (P. vulgaris A9436; Run 2) | MIC (K. pneumoniae D11; D11, Run 1)
